# Reference: PubChem BioAssay AID316 (DTP/NCI, 2004)
# Where “and” joins values, the source holds several entries; their conditions need not be identical. Identical values can stand only once. Inconclusive results and toxic doses are left out.
# System: P1534 leukemia ip, CD2F1 mice, survival T/C
# Assay: NCI In Vivo Anticancer Drug Screen. Data for tumor model P1534 Leukemia (intraperitoneal) in CD2F1 (CDF1) mice
# Conditions: higher = longer survival
# Method: The antitumor activity of compounds was measured in mice bearing transplantable tumors. Survival or tumor size were measured and the results are expressed as the measurement made in the treated group (T) divided by the measurement made in the vehicle treated control group (C). The tumor model used in this assay is P1534 Leukemia (intraperitoneal) in CD2F1 (CDF1) mice
# [1] = endpoint: mean survival time, dose: 25.0 mg/kg/injection, schedule: Q01DX010 (ip), vehicle: saline
# [2] = endpoint: mean survival time, dose: 50.0 mg/kg/injection, schedule: Q01DX010 (ip), vehicle: saline
# [3] = endpoint: mean survival time, dose: 100.0 mg/kg/injection, schedule: Q01DX010 (ip), vehicle: saline
# [4] = endpoint: mean survival time, dose: 200.0 mg/kg/injection, schedule: Q01DX010 (ip), vehicle: saline
# [5] = endpoint: mean survival time, dose: 5.0 mg/kg/injection, schedule: Q01DX010 (ip), vehicle: saline
# [6] = endpoint: mean survival time, dose: 10.0 mg/kg/injection, schedule: Q01DX010 (ip), vehicle: saline
# [7] = endpoint: mean survival time, dose: 12.5 mg/kg/injection, schedule: Q01DX010 (sc), vehicle: steriod suspending solution
# [8] = endpoint: mean survival time, dose: 25.0 mg/kg/injection, schedule: Q01DX010 (sc), vehicle: steriod suspending solution
# [9] = endpoint: mean survival time, dose: 1.25 mg/kg/injection, schedule: Q01DX010 (ip), vehicle: saline
# [10] = endpoint: mean survival time, dose: 2.5 mg/kg/injection, schedule: Q01DX010 (ip), vehicle: saline
compound,measurement,setting,value
COc1cc2c3c(c4ccc(OC)c(OC)c4c2cc1OC)CN1CCC[C@@H]1C3,T/C,"endpoint: mean survival time, dose: 2.5 mg/kg/injection, schedule: Q01DX010 (ip), vehicle: water",105 % of control
same,T/C,"endpoint: mean survival time, dose: 5.0 mg/kg/injection, schedule: Q01DX010 (ip), vehicle: water",102 % of control
same,T/C,"endpoint: mean survival time, dose: 7.5 mg/kg/injection, schedule: Q01DX010 (ip), vehicle: water",124 % of control
same,T/C,"endpoint: mean survival time, dose: 10.0 mg/kg/injection, schedule: Q01DX010 (ip), vehicle: water",113 % of control
O=c1[nH]cnc2ccccc12,T/C,[1],107 % of control
same,T/C,[2],100 % of control
same,T/C,[3],103 % of control
same,T/C,[4],114 % of control
CN(C)c1ccc(Nc2c3ccccc3nc3ccccc23)cc1,T/C,"endpoint: mean survival time, dose: 36.0 mg/kg/injection, schedule: Q01DX010 (ip), vehicle: saline",121 % of control
same,T/C,"endpoint: mean survival time, dose: 80.0 mg/kg/injection, schedule: Q01DX010 (ip), vehicle: saline",92 % of control
NC(N)=NCCCC(N)C(=O)NCCCCCCNCCCCCCNC(=O)C(N)CCCN=C(N)N (centres undefined),T/C,[5],107 % of control
same,T/C,[6],96 % of control
same,T/C,"endpoint: mean survival time, dose: 20.0 mg/kg/injection, schedule: Q01DX010 (ip), vehicle: saline",100 % of control
COc1cc2c(cc1Oc1c(Oc3c(O)c(OC)cc4c3C(CC(C)C)N(C)CC4)c(OC)cc3c1C(CC(C)C)N(C)CC3)C(CC(C)C)N(C)CC2 (centres undefined),T/C,[1],107 % of control
same,T/C,[2],115 % of control
same,T/C,[3],111 % of control
O=c1ccc2ccccc2o1,T/C,[2],107 % of control
same,T/C,[3],107 % of control
same,T/C,[4],107 % of control
O=C1C(=O)N(CN(CCO)CCO)c2ccccc21,T/C,[2],96 % of control
same,T/C,[3],100 % of control
same,T/C,[4],100 % of control
same,T/C,"endpoint: mean survival time, dose: 400.0 mg/kg/injection, schedule: Q01DX010 (ip), vehicle: saline",100 % of control
C[C@]12C=CC(=O)C=C1CC[C@@H]1[C@@H]2[C@@H](O)C[C@@]2(C)[C@H]1CC[C@]2(O)C(=O)CO,T/C,[7],103 % of control
same,T/C,[8],106 % of control and 110 % of control
COc1ccc2c3c(c4cc(OC)c(OC)cc4c2c1)C[C@H]1CCCCN1C3,T/C,"endpoint: mean survival time, dose: 0.3 mg/kg/injection, schedule: Q01DX010 (ip), vehicle: saline",100 % of control
same,T/C,"endpoint: mean survival time, dose: 0.5 mg/kg/injection, schedule: Q01DX010 (ip), vehicle: saline",113 % of control
CC/C(=C(/CC)c1ccc(O)cc1)c1ccc(O)cc1,T/C,[7],95 % of control and 100 % of control
same,T/C,[8],95 % of control and 100 % of control
same,T/C,"endpoint: mean survival time, dose: 50.0 mg/kg/injection, schedule: Q01DX010 (sc), vehicle: steriod suspending solution",95 % of control and 100 % of control
same,T/C,"endpoint: mean survival time, dose: 100.0 mg/kg/injection, schedule: Q01DX010 (sc), vehicle: steriod suspending solution",90 % of control and 100 % of control
CN(Cc1cnc2nc(N)nc(N)c2n1)c1ccc(C(=O)N[C@@H](CCC(=O)O)C(=O)O)cc1,T/C,"endpoint: median survival time, dose: 0.5 mg/kg/injection, schedule: Q01DX009 (ip), vehicle: sodium bicarbonate",158 % of control
same,T/C,"endpoint: median survival time, dose: 1.0 mg/kg/injection, schedule: Q01DX009 (ip), vehicle: sodium bicarbonate",198 % of control
CN(C)[C@@H]1C(=O)C(C(N)=O)=C(O)[C@@]2(O)C(=O)C3=C(O)c4c(O)cccc4C[C@H]3C[C@@H]12,T/C,"endpoint: mean survival time, dose: 3.75 mg/kg/injection, schedule: Q01DX010 (ip), vehicle: saline",107 % of control
same,T/C,"endpoint: mean survival time, dose: 7.5 mg/kg/injection, schedule: Q01DX010 (ip), vehicle: saline",107 % of control
same,T/C,"endpoint: mean survival time, dose: 15.0 mg/kg/injection, schedule: Q01DX010 (ip), vehicle: saline",100 % of control
same,T/C,"endpoint: mean survival time, dose: 30.0 mg/kg/injection, schedule: Q01DX010 (ip), vehicle: saline",103 % of control and 100 % of control
CCN(CC)C(=S)S,T/C,"endpoint: mean survival time, dose: 125.0 mg/kg/injection, schedule: Q01DX010 (ip), vehicle: saline",100 % of control
same,T/C,"endpoint: mean survival time, dose: 250.0 mg/kg/injection, schedule: Q01DX010 (ip), vehicle: saline",100 % of control
same,T/C,"endpoint: mean survival time, dose: 500.0 mg/kg/injection, schedule: Q01DX010 (ip), vehicle: saline",103 % of control
same,T/C,"endpoint: mean survival time, dose: 1000.0 mg/kg/injection, schedule: Q01DX010 (ip), vehicle: saline",107 % of control
N[C@@H](Cc1ccc(N(CCCl)CCCl)cc1)C(=O)O,T/C,[9],164 % of control
same,T/C,[10],189 % of control
CCCCOP(=S)(N1CC1)N1CC1,T/C,"endpoint: mean survival time, dose: 4.0 mg/kg/injection, schedule: Q01DX010 (ip), vehicle: saline",115 % of control
same,T/C,"endpoint: mean survival time, dose: 8.0 mg/kg/injection, schedule: Q01DX010 (ip), vehicle: saline",123 % of control
Nc1nc(=S)c2[nH]cnc2[nH]1,T/C,[9],161 % of control and 181 % of control
same,T/C,[10],150 % of control
same,T/C,[5],122 % of control
same,T/C,[6],105 % of control
